Earlier results as cited in patent publication US20260144756A1 (US NANO FOOD AND DRUG INC, priority 2022, published 2026).

Settings: in vivo

- elimination / terminal half-life: about 20 hours
Compound: CC(C)(Oc1ccc(C(=O)c2ccc(Cl)cc2)cc1)C(=O)O [fenofibric acid]
